Measured values reported in patent US11851681B2, “Cell preparation method” (KYOTO PREFECTURAL PUBLIC UNIVERSITY CORPORATION, priority 2015, dated 2023).
“Also recorded” adds a separate entry of the source.

Key:
Assay type in all cases: cell-based
[1] = tested on: Human normal skin-derived fibroblasts (HDFs); test: Real-time RT-PCR of UCP1, four inhibitors, Example 39
Procedure: The addition concentration of the compound was 4 μM, 8 μM, 12 μM or 16 μM. […] Thereafter, in Day 9-Day 14, culturing was performed in a medium free of ALK5 inhibitor II, LY2157299, SB431542, D4476.

[2] = tested on: Human normal skin-derived fibroblasts (HDFs); test: Immunostaining of UCP1, four inhibitors, Example 40; settings: LY2157299 8 μM, SB431542 4 μM, D4476 4 μM, Day 1 to Day 8, day 14, FIG. 44
Procedure: Human normal skin-derived fibroblasts (HDFs) were suspended in a general medium (DMEM added with 10% FBS). […] The adipocyte induction medium is DMEM added with 1 nM T3, 1 μM Rosiglitazone, 0.5 mM 3-isobutyl-1-methylxanthine (IBMX), 0.5 μM dexamethasone, 1 μg/mL Insulin and 10% FBS. Once every 2 days, the culture medium was exchanged with a fresh one, and culturing was performed from Day 1 to Day 8. Thereafter, from Day 9 to Day 14, the cells were cultured in an adipocyte induction medium free of ALK5 inhibitor II, LY2157299, SB431542, D4476. On day 14, the culture medium was removed by suction from each well, and washed with PBS(−). After fixing with 4% para-formaldehyde, the well was washed with PBS (−), Permanent wave Buffer (0.2% Triton-X addition PBS) was added and the well was incubated for 15 min. After washing 3 times with PBS(−), Blocking One was added, and the mixture was incubated at room temperature for 60 min. Anti-UCP-1 antibody (RD MAB6158) was added and the mixture was reacted for 2 hrs at room temperature, and washed 3 times with Wash buffer. CF488-conjugated anti-mouse Ig antibody (Biotum 20014) was added and the mixture was reacted for 2 hrs at room temperature, and washed 3 times with PBS(−). After nuclear staining with SlowFade Gold antifade reagent with DAPI manufactured by Lifetechnology, the cells were photographed with a fluorescence microscope at ×100 magnification.

[3] = tested on: Human normal skin-derived fibroblasts (HDFs); test: Real-time RT-PCR of UCP1, CIDEA, KCNK3, Example 41; settings: ALK5 inhibitor II or LY2157299 (8 μM), Day 1 to Day 8; day 14; FIG. 45
Procedure: Human normal skin-derived fibroblasts (HDFs) were suspended in a general medium (DMEM added with 10% FBS). […] The adipocyte induction medium is DMEM added with 1 nM T3, 1 μM Rosiglitazone, 0.5 mM 3-isobutyl-1-methylxanthine (IBMX), 0.5 μM dexamethasone, 1 μg/mL Insulin and 10% FBS. Once every 2 days, the culture medium was exchanged with a fresh one, and culturing was performed from Day 1 to Day 8. Thereafter, from Day 9 to Day 14, the cells were cultured in an adipocyte induction medium free of ALK5 inhibitor II or LY2157299. On day 14, the culture medium was removed by suction from each well, washed with PBS(−) and total RNA was extracted from the cells by using RNA easy Mini Kit manufactured by Qiagen. cDNA was synthesized from the RNA by using Rever Tra Ace qPCR RT Master Mix. This cDNA was admixed with Real-time PCR Master Mix, primers specific to UCP-1 gene, CIDEA gene, KCNK3 gene or β actin gene and Taqman probe. qRT-PCR was performed using AB7300 Real-time PCR system. The mRNA level of UCP1 gene was quantified as a ratio to β-actin gene mRNA, and calculated with the value of fibroblast cultured in the general medium as 1.

[4] = tested on: Human Epidermal Keratinocyte; NHEK (AD); test: Real-time RT-PCR of UCP1 and CIDEA, keratinocyte to brown adipocyte, Example 43; settings: K-adipocyte induction medium; ALK5 inhibitor II 4 μM or LY2157299 8 μM, Day 1 to Day 8; day 14; FIG. 47
Procedure: Normal human epidermal keratinocyte (Human Epidermal Keratinocyte; NHEK (AD)) were suspended in a serum-free liquid medium for normal human epidermal keratinocyte proliferation (HuMedia-KG2; manufactured by Kurabo).
The K-adipocyte induction medium is HuMedia-KG2 added with 1 nM T3, 1 μM Rosiglitazone, 0.5 mM 3-isobutyl-1-methylxanthine (IBMX), 0.5 μM dexamethasone, and 1 μg/mL Insulin.
Once every 2 days, the culture medium was exchanged with a fresh one, and culturing was performed from Day 1 to Day 8. Thereafter, from Day 9 to Day 14, the cells were cultured in a medium free of ALK5 inhibitor II or LY2157299. On day 14, the culture medium was removed by suction from each well, washed with PBS(−) and total RNA was extracted from the cells by using RNA easy Mini Kit manufactured by Qiagen. cDNA was synthesized from the RNA by using Rever Tra Ace qPCR RT Master Mix. This cDNA was admixed with Real-time PCR Master Mix, primers specific to UCP-1 gene, CIDEA gene or β actin gene and Taqman probe. qRT-PCR was performed using AB7300 Real-time PCR system. The mRNA level of UCP1 gene and CIDEA gene was quantified as a ratio to β-actin gene mRNA level, and calculated with the value of fibroblast cultured in the general medium as 1.

[5] = tested on: human dermal fibroblasts; HDFs; test: Bodipy staining in WA medium, four inhibitors, Example 48; settings: day 12, FIG. 52
[6] = tested on: human dermal fibroblasts; HDFs; test: Bodipy staining quantification in WA medium, four inhibitors, Example 49; settings: 16 μM compound and 1 μM Rosiglitazone, day 12, FIG. 53
[7] = tested on: human dermal fibroblasts; HDFs; test: Real-time PCR of AdipoQ, FABP4, PPAR-γ, four inhibitors with Rosiglitazone, Example 50; settings: WA medium added with 1 μM Rosiglitazone and 16 μM compound; day 12
From the text: On day 12, RNA was recovered from the cells and, in the same manner as in Example 47, mRNA of AdipoQ, FABP4 (mature adipocyte marker), and PPAR-γ (preadipocyte marker) was quantified.

[8] = tested on: human dermal fibroblasts; HDFs; test: Real-time RT-PCR of Sox9 and Aggrican in cartilage induction medium, Example 8; settings: ALK5 inhibitor II 2 μM, Cyclic Pifithrin-α 5 μM, day 18, FIG. 8
Procedure: The concentrations of the compounds are as follows: • Cyclic Pifithrin-α: 5 μM • ALK5 inhibitor II: 2 μM.

Compound	conversion of fibroblast to brown adipocyte, UCP1 mRNA ([1]; 4 μM, 8 μM, 12 μM or 16 μM in adipocyte induction medium Day 1 to Day 8, then compound-free to day 14, FIG. 43)	efficiency in converting fibroblast to brown adipocyte (summary statement) ([1]; description, conditions not given)	conversion of fibroblast to brown adipocyte, UCP1 protein ([2]; ALK5 inhibitor II 4 μM)	staining with anti-UCP1 antibody ([2]; groups 3-6: ALK5 inhibitor II 4 μM)	conversion of fibroblast to brown adipocyte, UCP1, CIDEA and KCNK3 mRNA [3]	conversion of epidermal keratinocyte to brown adipocyte, UCP1 and CIDEA mRNA [4]	lipid droplets stained with Bodipy, inhibitor alone ([5]; WA medium added with 16 μM compound alone)	lipid droplets stained with Bodipy / conversion to white adipocyte, inhibitor and Rosiglitazone ([5]; WA medium added with 16 μM compound and 1 μM Rosiglitazone)	fat accumulation (BODIPY) / conversion to white adipocyte, co-addition of Rosiglitazone [6]	conversion of human fibroblast to white adipocyte (mRNA markers) [7]	conversion of fibroblast to chondrocyte, Sox9 and Aggrican mRNA [8]
Cc1cccc(-c2nn3c(c2-c2ccnc4ccc(C(N)=O)cc24)CCC3)n1 [LY2157299, 4-[5,6-dihydro-2-(6-methyl-2-pyridinyl)-4H-pyrrolo[1,2-b]pyrazol-3-yl]-6-quinolinecarboxamide]	converted fibroblast to brown adipocyte strongly expressing UCP1 gene; also recorded: secondly	highly efficient in converting fibroblast to brown adipocyte	converted fibroblast to brown adipocyte expressing UCP1 protein; also recorded: secondly	many cells were stained with anti-UCP1 antibody; also recorded: the second highest	converted fibroblast to brown adipocyte expressing UCP1 gene, CIDEA gene and KCNK3 gene	converted normal human epidermal keratinocyte to brown adipocyte expressing UCP1 gene and CIDEA gene	only a few cells contained lipid droplets stained with Bodipy	many cells were stained	more strongly induced fat accumulation than by the addition of Rosiglitazone alone	converted human fibroblast to white adipocyte	–
Cc1ccc(-c2cn3c4c(sc3n2)CCCC4)cc1 [Cyclic Pifithrin-α]	–	–	–	–	–	–	–	–	–	–	does not promote conversion of fibroblast to chondrocyte
